From publication PMC11143257, “Atomistic mechanism of coupling between cytosolic sensor domain and selectivity filter in TREK K2P channels” (Nature Communications, 2024)
“Also recorded” adds a separate entry of the source. Where a name gives a salt, the structure may show the parent alone.

How the values were obtained:
TREK-2* [1] = target: T1, TREK-2* (Homo sapiens, UniProt P57789); test: NFx inhibition, inside-out patch-clamp; assay type: cell-based; parameters: was truncated from WT and includes amino acids 67 - 355; expressed in transfected cells; host or cells: Xenopus laevis oocytes (cRNA injection, pFAW vector); conditions: TREK-2* (amino acids 67 - 355), peer review file
T1 sequence (P57789 67-355 isoform P57789-4): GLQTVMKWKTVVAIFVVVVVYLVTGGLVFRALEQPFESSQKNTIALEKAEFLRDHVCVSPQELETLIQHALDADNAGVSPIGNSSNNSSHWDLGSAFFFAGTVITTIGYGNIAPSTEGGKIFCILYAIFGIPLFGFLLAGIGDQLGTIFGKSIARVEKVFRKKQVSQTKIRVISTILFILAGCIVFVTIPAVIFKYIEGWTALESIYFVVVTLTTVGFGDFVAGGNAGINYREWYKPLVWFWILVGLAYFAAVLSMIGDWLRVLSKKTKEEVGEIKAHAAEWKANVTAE
Text: In this study, the coding sequences of human K2P2.1 TREK-1 (Genbank accession number: NM_172042), rat K2P2.1 TREK-1 (NM_172041.2), human K2P10.1 TREK-2 (NM_021161) and human K2P4.1 TRAAK (AF247042) were used. For K^+ channel constructs expressed in Xenopus laevis oocytes the respective K^+ channel subtype coding sequences were subcloned into the dual-purpose vector pFAW. The TREK-2 construct with the extended pCt (TREK-2^*) was truncated from WT and includes amino acids 67 - 355. All mutant channels (point mutations) were obtained by site-directed mutagenesis with custom oligonucleotides. Vector DNA was linearized with NheI or MluI and cRNA synthesized in vitro using the SP6 or T7 AmpliCap Max High Yield Message Maker Kit (Cellscript, USA) and stored at −20 °C (for frequent use) and −80 °C (for long term storage).
(§1) Xenopus laevis oocytes were surgically removed from anesthetized adult females, treated with type II collagenase (Sigma-Aldrich/Merck, Germany) and manually defolliculated. […] Currents were recorded with an EPC10 amplifier (HEKA electronics, Germany) and sampled at 10 kHz or higher and filtered with 3 kHz (-3 dB) or higher as appropriate for the sampling rate. […]

TREK-2* [2] = target: T1, TREK-2*; test: MTS probe modification, inside-out patch-clamp; assay type: cell-based; parameters: was truncated from WT and includes amino acids 67 - 355; expressed in transfected cells; host or cells: Xenopus laevis oocytes (cRNA injection), excised inside-out patches; conditions: 100 µM decyl-MTS for at least 30 s, symmetrical K+, pH 7.4, +40 mV
Protocol: First, we measured WT TREK-1, WT TRAAK and TREK-2^* channels without modifiable cysteine residues as references. Upon application of 100 µM of decyl-MTS for at least 30 s to the respective channel in excised membrane patches, no change in current amplitudes was recognized (Fig. 2a and Supplementary Fig. 2a, b). Note, that patch integrity and channel regulation were tested with either 1 mM tetra-pentyl-ammonium (TPenA) and a short pHi activation step. Next, we conducted systematic cysteine scanning mutagenesis of the entire pCt and examined the effect of charged and aliphatic MTS probes. […] Remarkably, all hit residues face toward the inner leaflet of the lipid bilayer (Fig. 2b, inlay).
In this study, the coding sequences of human K2P2.1 TREK-1 (Genbank accession number: NM_172042), rat K2P2.1 TREK-1 (NM_172041.2), human K2P10.1 TREK-2 (NM_021161) and human K2P4.1 TRAAK (AF247042) were used. […]
as §1

IC50 (TREK-2* [1])	effect on current amplitude (TREK-2* [2])	Compound
3.2 ± 1 µM		NCCC(Oc1ccc(C(F)(F)F)cc1)c1ccccc1 (centres unmarked) [NFx, Norfluoxetine hydrochloride]
	no change; also recorded: no effect	CCCCCCCCCCSS(C)(=O)=O [decyl-MTS, Decyl-MethaneThioSulfonate]
